# Measured values taken from patent US20220008444A1, “COMPOSITIONS FOR USE IN THE PREVENTION OR TREATMENT OF NECROTIZING ENTEROCOLITIS IN INFANTS AND YOUNG CHILDREN” (SOCIÉTÉ DES PRODUITS NESTLÉ S.A., priority 2013, published 2022).
# System: NFkB
# Experiment: NFkB reporter cell line (HT29) stimulated with TNFalpha or gram negative bacterium, in conditioned media
# Type: cell-based
# Settings: HT29 NFkB reporter cells; cell culture media fermented with Bifidobacterium longum subsp infantis and the substance; stimulation with TNFalpha or S. typhymurium
# Method: HT29 cells harbouring an expression plasmid with the NFkB promoter controlling an alkaline phosphatase were treated with different media and challenged with the proinflammatory TNFalpha or a gram negative bacterium such as Salmonella typhimurium. Treatments were cell culture media fermented with Bifidobacterium longum subsp infantis and (i) lactose or (ii) Lacto-N-tetraose (LNT).
# The cells harbored an expression plasmid with the NF-κB promoter controlling an alkaline phosphatase so that stimulation by TNF-α or a gram negative bacterium would be indicated by fluorescence generated by interaction of the alkaline phosphatase with a fluorogenic substrate. […] This indicates LNT to exert a strong anti-inflammatory effect. Conditioned media with LNT lead to higher resistance of the cells upon proinflammatory TNFalpha or a gram negative bacterial stimulation. Intestinal epithelia cells in media conditioned by LNT (lacto-N-tetraose) and Bifidobacterium fermentation products are more resistant to proinflammatory stimulation by TNFalpha as compared to cells in a control medium conditioned by lactose and Bifidobacterium fermentation products.
smiles,measurement,value
"CC(=O)N[C@H]1[C@H](O[C@H]2[C@@H](O)[C@@H](CO)O[C@@H](O[C@H]3[C@H](O)[C@@H](O)C(O)O[C@@H]3CO)[C@@H]2O)O[C@H](CO)[C@@H](O)[C@@H]1O[C@@H]1O[C@H](CO)[C@H](O)[C@H](O)[C@H]1O (some centres unmarked) [LNT, lacto-N-tetraose]",activation of the inflammation marker nuclear factor kappa B (NFkB),no stimulation
OC[C@H]1O[C@@H](O[C@H]2[C@H](O)[C@@H](O)C(O)O[C@@H]2CO)[C@H](O)[C@@H](O)[C@H]1O (some centres unmarked) [lactose],activation of the inflammation marker nuclear factor kappa B (NFkB),very strong stimulation
